From ChEMBL document CHEMBL4818998, “Melatonin derivatives combat with inflammation-related cancer by targeting the Main Culprit STAT3” (Eur J Med Chem, 2021) come the findings set out here.

SMILES strings stand for the structures.

The test system of one experiment is HepG2. Briefly: Antiproliferative activity against human HepG2 cells assessed as inhibition of cell proliferation measured after 72 hrs by MTT assay. Type of experiment: functional, cell-based. The settings on record: HepG2, 72 h. For orientation: Formazan colour is commonly taken as a measure of viable cells.
For a further experiment, the system named is AGS. Briefly: Antiproliferative activity against human AGS cells assessed as inhibition of cell proliferation measured after 72 hrs by MTT assay. Type of experiment: functional, cell-based.
Experiment [1] relates to HCT-116. Briefly: Antiproliferative activity against human HCT-116 cells assessed as inhibition of cell proliferation measured after 72 hrs by MTT assay. Type of experiment: functional, cell-based. As to conditions: HCT-116, 72 h.
The subject of a further experiment is A549. Briefly: Antiproliferative activity against human A549 cells assessed as inhibition of cell proliferation measured after 72 hrs by MTT assay. The settings on record: A549, 72 h. Type of experiment: functional, cell-based.
A further experiment deals with MCF7. Briefly: Antiproliferative activity against human MCF7 cells assessed as inhibition of cell proliferation measured after 72 hrs by MTT assay. As to conditions: MCF7, 72 h. The format is functional, cell-based.
In another experiment the test system is MGC-803. Briefly: Antiproliferative activity against human MGC-803 cells assessed as inhibition of cell proliferation measured after 72 hrs by MTT assay. Type of experiment: functional, cell-based. As to conditions: MGC-803, 72 h.
A further experiment deals with SGC-7901. Briefly: Antiproliferative activity against human SGC-7901 cells assessed as inhibition of cell proliferation measured after 72 hrs by MTT assay. Type of experiment: functional, cell-based. The settings on record: SGC-7901, 72 h.
Another experiment relates to HGC-27. Briefly: Antiproliferative activity against human HGC-27 cells assessed as inhibition of cell proliferation measured after 72 hrs by MTT assay. Type of experiment: functional, cell-based. As to conditions: HGC-27, 72 h.
In experiment [2] the test system is HCT-116. Briefly: Induction of apoptosis in human HCT-116 cells assessed as late apoptotic cells at 20 uM measured after 48 hrs by Annexin V-FITC/PI staining based flow cytometry (reference value: 1.42%). The format is functional. On the technique in general: In flow cytometry, cells or beads pass a laser one at a time.
Experiment [3] deals with HCT-116. Briefly: Induction of apoptosis in human HCT-116 cells assessed as necrotic cells at 20 uM measured after 48 hrs by Annexin V-FITC/PI staining based flow cytometry (reference value: 1.5%). The format is functional.
Experiment [4] deals with HCT-116. Briefly: Induction of apoptosis in human HCT-116 cells assessed as viable cells at 20 uM measured after 48 hrs by Annexin V-FITC/PI staining based flow cytometry (reference value: 94.9%). The format is functional. The settings on record: read-out: Activity.
Experiment [5] deals with HCT-116. Briefly: Induction of apoptosis in human HCT-116 cells assessed as early apoptotic cells at 20 uM measured after 48 hrs by Annexin V-FITC/PI staining based flow cytometry (reference value: 2.14%). Type of experiment: functional.

One may read the IC50 as the concentration that gives 50% inhibition. On to `O=C(NCCc1c[nH]c2ccccc12)c1ccccc1NC1CC1`, for which the IC50 in the experiment on HepG2 is 28.4 µM; with AGS it was greater than 30 µM; with HCT-116 [1], greater than 30 µM; with A549, greater than 30 µM; with MCF7 it was greater than 30 µM; with MGC-803, greater than 30 µM. Also, the IC50 in the experiment on SGC-7901 was greater than 30 µM; with HGC-27 it was 28.3 µM.

Regarding `COc1ccc(CCNc2ccccc2C(=O)NCCc2c[nH]c3ccccc23)cc1OC`, the IC50 in the experiment on HepG2, in the experiment with AGS, in the experiment with HCT-116 [1], in the experiment with A549, in the experiment with MCF7 and with MGC-803 was greater than 30 µM each time. Besides, the IC50 with SGC-7901 and in the experiment on HGC-27 was greater than 30 µM in each case.

As for `O=c1[nH]cc(F)c(=O)[nH]1` [FLUOROURACIL], the IC50 is greater than 30 µM in the experiment with HepG2; 11 µM with AGS; 6.1 µM in the experiment on HCT-116 [1]; greater than 30 µM in the experiment with A549; 13.2 µM in the experiment on MCF7; 29.2 µM in the experiment on MGC-803. The IC50 with SGC-7901 and in the experiment on HGC-27 was greater than 30 µM each time. The Activity is on record as 10.4% with HCT-116 [2], 2.69% with HCT-116 [3] and 5.54% with HCT-116 [5]. For the same molecule, the viability at 20 µM with HCT-116 [4] was determined as 81.3%.

Take `CN(c1ccccc1)c1ccccc1C(=O)NCCc1c[nH]c2ccccc12`: the IC50 was 21.3 µM in the experiment on HepG2; 14.7 µM in the experiment on AGS; 17.2 µM in the experiment with HCT-116 [1]; greater than 30 µM with A549; 19.6 µM in the experiment with MCF7; 11.1 µM in the experiment on MGC-803. The IC50 in the experiment on SGC-7901 and in the experiment on HGC-27 was greater than 30 µM in each case.

For `Cc1ccc(S(=O)(=O)Nc2ccccc2C(=O)NCCc2c[nH]c3ccccc23)cc1`, the IC50 in the experiment on HepG2, with AGS, with HCT-116 [1], in the experiment on A549, with MCF7 and in the experiment with MGC-803 was greater than 30 µM in each case. Also, the IC50 in the experiment on SGC-7901 and with HGC-27 was greater than 30 µM each time.

Consider `O=C(NCCc1c[nH]c2ccccc12)c1ccccc1NC1CCCC1`, for which the IC50 with HepG2 is 28.8 µM; with AGS, greater than 30 µM; with HCT-116 [1], greater than 30 µM; in the experiment with A549, greater than 30 µM; in the experiment with MCF7, greater than 30 µM; in the experiment on MGC-803, greater than 30 µM. The IC50 in the experiment with SGC-7901 is greater than 30 µM; in the experiment on HGC-27, 19.3 µM.

As to `CN(C)c1ccccc1C(=O)NCCc1c[nH]c2ccccc12`, the IC50 in the experiment on HepG2 is greater than 30 µM; in the experiment on AGS, 22.6 µM; in the experiment on HCT-116 [1] it was 16.6 µM; in the experiment on A549, greater than 30 µM; with MCF7 it was greater than 30 µM; in the experiment on MGC-803, greater than 30 µM. For the same molecule, the IC50 in the experiment on SGC-7901 and in the experiment with HGC-27 was greater than 30 µM in each case.

For `Cc1cccc(Nc2ccccc2C(=O)NCCc2c[nH]c3ccc(O)cc23)c1C`, the IC50 is 17 µM with HepG2; 8.97 µM in the experiment on AGS; 22.2 µM in the experiment with HCT-116 [1]; greater than 30 µM with A549; 25.3 µM in the experiment with MCF7; 16.5 µM in the experiment with MGC-803. Besides, the IC50 with SGC-7901 is greater than 30 µM; with HGC-27 it was 27 µM.

For the molecule `O=C(NCCc1c[nH]c2ccccc12)c1ccccc1NCc1ccccc1`, the IC50 with HepG2, in the experiment with AGS, in the experiment with HCT-116 [1], with A549, with MCF7 and with MGC-803 was greater than 30 µM each time. For the same molecule, the IC50 with SGC-7901 was greater than 30 µM; with HGC-27, 19.9 µM.

For the molecule `COc1ccc2[nH]cc(CCNC(=O)c3ccccc3Nc3cccc(Cl)c3C)c2c1`, the IC50 in the experiment on HepG2 was determined as 21.9 µM; with AGS it was 16 µM; in the experiment with HCT-116 [1], 20.4 µM; in the experiment with A549 it was 17.8 µM; in the experiment with MCF7, 25.3 µM; in the experiment with MGC-803, 9.8 µM. The results for the half-inhibitory concentration (IC50) in the experiment with SGC-7901 and with HGC-27 were 27.9 µM and 19.9 µM, respectively.

Regarding `CNc1ccccc1C(=O)NCCc1c[nH]c2ccccc12`, the IC50 in the experiment with HepG2, in the experiment on AGS, in the experiment with HCT-116 [1], with A549, in the experiment on MCF7 and in the experiment with MGC-803 was greater than 30 µM in each case. The IC50 with SGC-7901 and in the experiment with HGC-27 was greater than 30 µM each time.

Turning to `COc1ccc2[nH]cc(CCNC(=O)c3ccccc3Nc3ccccc3)c2c1`, the IC50 in the experiment with HepG2 was greater than 30 µM; in the experiment on AGS it was greater than 30 µM; in the experiment on HCT-116 [1] it was 24.7 µM; in the experiment with A549, greater than 30 µM; in the experiment on MCF7, 29 µM; in the experiment with MGC-803 it was 12.8 µM. The IC50 in the experiment on SGC-7901 and in the experiment on HGC-27 was greater than 30 µM throughout.

As for `O=C(NCCc1c[nH]c2ccccc12)c1ccccc1NCCCCO`, the IC50 in the experiment with HepG2, in the experiment with AGS, with HCT-116 [1], with A549, in the experiment with MCF7 and in the experiment with MGC-803 was greater than 30 µM in each case. The IC50 in the experiment on SGC-7901 and in the experiment on HGC-27 was greater than 30 µM throughout.

With `COc1ccc2[nH]cc(CCNC(C)=O)c2c1` [MELATONIN], the IC50 in the experiment on HepG2, in the experiment on AGS, in the experiment on HCT-116 [1], with A549, in the experiment on MCF7 and in the experiment on MGC-803 was greater than 30 µM in each case. The IC50 with SGC-7901 and in the experiment with HGC-27 was greater than 30 µM in each case.

In the case of `O=C(NCCc1c[nH]c2ccccc12)c1ccccc1NC1CCCCC1`, the IC50 in the experiment on HepG2 was 28.6 µM; in the experiment with AGS it was greater than 30 µM; in the experiment with HCT-116 [1], greater than 30 µM; in the experiment with A549, greater than 30 µM; in the experiment with MCF7 it was greater than 30 µM; in the experiment with MGC-803 it was greater than 30 µM. In addition, the IC50 with SGC-7901 was greater than 30 µM; in the experiment with HGC-27 it was 26.7 µM.

For the molecule `Cc1cccc(Nc2ccccc2C(=O)NCCc2c[nH]c3ccccc23)c1C`, the IC50 was 21.7 µM with HepG2; 16.6 µM with AGS; 14.4 µM with HCT-116 [1]; greater than 30 µM in the experiment on A549; greater than 30 µM in the experiment on MCF7; greater than 30 µM in the experiment with MGC-803. Also, the IC50 in the experiment on SGC-7901 and in the experiment with HGC-27 was greater than 30 µM each time.
